Values joined by “and” are separate entries in the source; they are usually repeats but may differ in a detail not shown here. Equal values may be shown once.
Molecular target: Syk (Homo sapiens, UniProt P43405)
Assay: High Throughput Syk Biochemical Assay (KinEASE TR-FRET)
Conditions: TABLE D, 20 μM ATP, 1 μM biotinylated peptide, 0.015 nM Syk, 30 min at room temperature, read-out: IC50
In short: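 Compounds in DMSO dilution series were tested against Syk, which phosphorylates an XL665-tagged peptide. The phosphoproduct was bound by Eu-labelled phosphotyrosine antibody in a two-step endpoint format.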

Compound | IC50
C[C@@H](Oc1nc(-c2ccc(N3CCOCC3)cc2)cc2ncn(C(F)F)c12)[C@H]1CNC(=O)C1 [(R)-4-((R)-1-(3-(difluoromethyl)-6-(4-morpholinophenyl)-3H-imidazo[4,5-c]pyridin-4-yloxy)ethyl)pyrrolidin-2-one] | 1.55 nM and 1.25 nM
COc1ccc(-c2cc3ncn(C(F)F)c3c(O[C@H](C)[C@H]3CNC(=O)C3)n2)cc1OC [(R)-4-((R)-1-(3-(difluoromethyl)-6-(3,4-dimethoxyphenyl)-3H-imidazo[4,5-c]pyridin-4-yloxy)ethyl)pyrrolidin-2-one] | 1.1 nM
C[C@@H](Oc1nc(-c2ccc(N3CCOCC3)nc2)cc2ncn(C)c12)[C@H]1CNC(=O)C1 | 11.5 nM
C[C@@H](Oc1cc(-c2ccc(N3CCOCC3)cn2)cc2ncsc12)[C@H]1CNC(=O)C1 (stereo in doubt) [(R)-4-((R)-1-((5-(5-morpholinopyridin-2-yl)benzo[d]thiazol-7-yl)oxy)ethyl)pyrrolidin-2-one] | 1.88 nM
COc1ccc(-c2cc(O[C@H](C)[C@H]3CNC(=O)C3)c3scnc3c2)cc1OC (stereo in doubt) [(R)-4-((R)-1-((5-(3,4-dimethoxyphenyl)benzo[d]thiazol-7-yl)oxy)ethyl)pyrrolidin-2-one] | 5 nM
C[C@@H](Oc1nc(-c2csc(C(C)(C)C)n2)cc2ncn(C)c12)[C@H]1CNC(=O)C1 [(R)-4-((R)-1-(6-(2-tert-butylthiazol-4-yl)-3-methyl-3H-imidazo[4,5-c]pyridin-4-yloxy)ethyl)pyrrolidin-2-one] | 19.3 nM
COc1cc(-c2cc3ncn(C)c3c(O[C@H](C)[C@H]3CNC(=O)C3)n2)cc(OC)c1OC [(R)-4-((R)-1-(3-methyl-6-(3,4,5-trimethoxyphenyl)-3H-imidazo[4,5-c]pyridin-4-yloxy)ethyl)pyrrolidin-2-one] | 5.26 nM
C[C@@H](Oc1cc(-c2cccc(C(F)(F)F)n2)cc2ncn(C)c12)[C@H]1CNC(=O)C1 [(R)-4-((R)-1-((1-methyl-5-(6-(trifluoromethyl)pyridin-2-yl)-1H-benzo[d]imidazol-7-yl)oxy)ethyl)pyrrolidin-2-one] | 191 nM
COc1ccc(-c2cc3ncn(C)c3c(O[C@H](C)[C@H]3CNC(=O)C3)n2)cn1 [(R)-4-((R)-1-(6-(6-methoxypyridin-3-yl)-3-methyl-3H-imidazo[4,5-c]pyridin-4-yloxy)ethyl)pyrrolidin-2-one] | 71.7 nM
COc1ccc(-c2cc3ncn(C(C)C)c3c(O[C@H](C)[C@H]3CNC(=O)C3)n2)cc1OC [(R)-4-((R)-1-(6-(3,4-dimethoxyphenyl)-3-isopropyl-3H-imidazo[4,5-c]pyridin-4-yloxy)ethyl)pyrrolidin-2-one] | 3.39 nM
C[C@@H](Oc1nc(-c2ccc(N3CCN(C4COC4)CC3)cc2)cc2ncn(C)c12)[C@H]1CNC(=O)C1 [(R)-4-((R)-1-(3-methyl-6-(4-(4-(oxetan-3-yl)piperazin-1-yl)phenyl)-3H-imidazo[4,5-c]pyridin-4-yloxy)ethyl)pyrrolidin-2-one] | 8.21 nM

Results, then the compound that gave them:

IC50 | Compound
51.3 nM | COc1ccc(-c2cc3ncn(CC(F)(F)F)c3c(O[C@H](C)[C@H]3CNC(=O)C3)n2)cc1OC [(R)-4-((R)-1-(6-(3,4-dimethoxyphenyl)-3-(2,2,2-trifluoroethyl)-3H-imidazo[4,5-c]pyridin-4-yloxy)ethyl)pyrrolidin-2-one]
4.6 nM | C[C@@H](Oc1nc(-c2ccc(N3CCOCC3)cc2)cc2ncn(C)c12)[C@H]1CNC(=O)C1 [(R)-4-((R)-1-(3-methyl-6-(4-morpholinophenyl)-3H-imidazo[4,5-c]pyridin-4-yloxy)ethyl)pyrrolidin-2-one]
2.62 nM | C[C@@H](Oc1cc(-c2ccc(N3CCN(C4CCOCC4)CC3)cn2)cc2ncsc12)[C@H]1CNC(=O)C1 (stereo in doubt) [(R)-4-((R)-1-((5-(5-(4-(tetrahydro-2H-pyran-4-yl)piperazin-1-yl)pyridin-2-yl)benzo[d]thiazol-7-yl)oxy)ethyl)pyrrolidin-2-one]
13.2 nM | C[C@@H](Oc1nc(-c2cnn(CCF)c2)cc2ncn(C)c12)[C@H]1CNC(=O)C1 [(R)-4-((R)-1-(6-(1-(2-fluoroethyl)-1H-pyrazol-4-yl)-3-methyl-3H-imidazo[4,5-c]pyridin-4-yloxy)ethyl)pyrrolidin-2-one]
30.6 nM | C[C@@H](Oc1nc(-c2ccc3scnc3c2)cc2ncn(C)c12)[C@H]1CNC(=O)C1 [(R)-4-((R)-1-((6-(benzo[d]thiazol-5-yl)-3-methyl-3H-imidazo[4,5-c]pyridin-4-yl)oxy)ethyl)pyrrolidin-2-one]
74.2 nM | COc1cc(-c2cc3ncn(C)c3c(O[C@H](C)[C@H]3CNC(=O)C3)n2)ccc1C#N [2-methoxy-4-(3-methyl-4-((R)-1-((R)-5-oxopyrrolidin-3-yl)ethoxy)-3H-imidazo[4,5-c]pyridin-6-yl)benzonitrile]
12.4 nM | Cc1nc2cc(-c3cc4ncn(C)c4c(O[C@H](C)[C@H]4CNC(=O)C4)n3)ccc2s1 [(R)-4-((R)-1-((3-methyl-6-(2-methylbenzo[d]thiazol-5-yl)-3H-imidazo[4,5-c]pyridin-4-yl)oxy)ethyl)pyrrolidin-2-one]
13.5 nM | C[C@@H](Oc1nc(-c2ccc3c(c2)N(C)CCO3)cc2ncn(C)c12)[C@H]1CNC(=O)C1 [(R)-4-((R)-1-(3-methyl-6-(4-methyl-3,4-dihydro-2H-benzo[b][1,4]oxazin-6-yl)-3H-imidazo[4,5-c]pyridin-4-yloxy)ethyl)pyrrolidin-2-one]
3.31 nM | C[C@@H](Oc1nc(-c2cnn(CC(F)F)c2)cc2ncn(C(F)F)c12)[C@H]1CNC(=O)C1 [(R)-4-((R)-1-(6-(1-(2,2-difluoroethyl)-1H-pyrazol-4-yl)-3-(difluoromethyl)-3H-imidazo[4,5-c]pyridin-4-yloxy)ethyl)pyrrolidin-2-one]
32.8 nM | C[C@@H](Oc1nc(-c2cnn(C(F)F)c2)cc2ncn(C)c12)[C@H]1CNC(=O)C1 [(R)-4-((R)-1-(6-(1-(difluoromethyl)-1H-pyrazol-4-yl)-3-methyl-3H-imidazo[4,5-c]pyridin-4-yloxy)ethyl)pyrrolidin-2-one]
53.7 nM | COc1ccc(-c2cc(O[C@H](C)[C@H]3CNC(=O)C3)c3c(C)cnn3c2C)cc1OC [(R)-4-((R)-1-((6-(3,4-dimethoxyphenyl)-3,7-dimethylpyrazolo[1,5-a]pyridin-4-yl)oxy)ethyl)pyrrolidin-2-one]
1.73 nM | C[C@@H](Oc1cc(-c2ccc(N3CCN(C4COC4)CC3)cn2)cc2ncsc12)[C@H]1CNC(=O)C1 (stereo in doubt) [(R)-4-((R)-1-((5-(5-(4-(oxetan-3-yl)piperazin-1-yl)pyridin-2-yl)benzo[d]thiazol-7-yl)oxy)ethyl)pyrrolidin-2-one]
8.65 nM | CC(C)n1cc(-c2cc3ncn(C)c3c(O[C@H](C)[C@H]3CNC(=O)C3)n2)cn1 [(R)-4-((R)-1-(6-(1-isopropyl-1H-pyrazol-4-yl)-3-methyl-3H-imidazo[4,5-c]pyridin-4-yloxy)ethyl)pyrrolidin-2-one]

Same assay, conditions: table 'ALL NEW COMPOUNDS IN 2014', 20 μM ATP, 1 μM biotinylated peptide, 0.015 nM Syk, 30 min at room temperature, read-out: Syk IC50

Compound | IC50
C[C@@H](Oc1cc(-c2ccc(N3CC4CC(C3)O4)cn2)cc2ncn(C3CC3)c12)[C@H]1CNC(=O)C1 [(4R)-4-((1R)-1-((5-(5-(6-oxa-3-azabicyclo[3.1.1]heptan-3-yl)pyridin-2-yl)-1-cyclopropyl-1H-benzo[d]imidazol-7-yl)oxy)ethyl)pyrrolidin-2-one] | 5.57 nM
C[C@@H](Oc1cc(-c2cnn(C)c2)cc2ncn(C3CC3)c12)[C@H]1CNC(=O)C1 [(R)-4-((R)-1-((1-cyclopropyl-5-(1-methyl-1H-pyrazol-4-yl)-1H-benzo[d]imidazol-7-yl)oxy)ethyl)pyrrolidin-2-one] | 4.44 nM
C[C@@H](Oc1nc(-c2ccc3c(c2)NCC3(C)C)cc2ncn(C3CC3)c12)[C@H]1CNC(=O)C1 [(R)-4-((R)-1-((3-cyclopropyl-6-(3,3-dimethylindolin-6-yl)-3H-imidazo[4,5-c]pyridin-4-yl)oxy)ethyl)pyrrolidin-2-one] | 2.33 nM
C[C@@H](Oc1nc(-c2ccncc2)cc2ncn(C3CC3)c12)[C@H]1CNC(=O)C1 [(R)-4-((R)-1-((3-cyclopropyl-6-(pyridin-4-yl)-3H-imidazo[4,5-c]pyridin-4-yl)oxy)ethyl)pyrrolidin-2-one] | 11.9 nM

More lines, now with the values ahead:

IC50 | Compound
11.6 nM | C[C@@H](Oc1cc(-c2ccc(N3CCN(C4COC4)CC3)nn2)cc2ncn(C3CC3)c12)[C@H]1CNC(=O)C1 [(R)-4-((R)-1-((1-cyclopropyl-5-(6-(4-(oxetan-3-yl)piperazin-1-yl)pyridazin-3-yl)-1H-benzo[d]imidazol-7-yl)oxy)ethyl)pyrrolidin-2-one]
0.935 nM | C[C@@H](Oc1nc(-c2ccc3c(c2)NC(=O)OC3(C)C)cc2ncn(C)c12)[C@H]1CNC(=O)C1 [4,4-dimethyl-7-(3-methyl-4-((R)-1-((R)-5-oxopyrrolidin-3-yl)ethoxy)-3H-imidazo[4,5-c]pyridin-6-yl)-1H-benzo[d][1,3]oxazin-2(4H)-one]
6.57 nM | (R)-4-((R)-1-((3-cyclopropyl-6-(3,4-dimethoxyphenyl)-3H-imidazo[4,5-c]pyridin-4-yl)oxy)ethyl)pyrrolidin-2-one
4.65 nM | C[C@@H](Oc1nc(-c2cnn(C3COC3)c2)cc2ncn(C3CC3)c12)[C@H]1CNC(=O)C1
9.11 nM | C[C@@H](Oc1cc(-c2ccc3c(c2)NCC3(C)C)cc2ncn(C3CC3)c12)[C@H]1CNC(=O)C1 [(R)-4-((R)-1-((1-cyclopropyl-5-(3,3-dimethylindolin-6-yl)-1H-benzo[d]imidazol-7-yl)oxy)ethyl)pyrrolidin-2-one]
18 nM | C[C@@H](Oc1cc(-c2ccccc2)cc2ncn(C3CC3)c12)[C@H]1CNC(=O)C1 [(R)-4-((R)-1-((1-cyclopropyl-5-phenyl-1H-benzo[d]imidazol-7-yl)oxy)ethyl)pyrrolidin-2-one]

Reference: patent publication US10005774B2, “Syk inhibitors” (Gilead Sciences, Inc., priority 2013, dated 2018)
